Measured values reported in US20060035966A1, “Irreversible selective androgen receptor modulators and methods of use thereof” (priority 2002, published 2006).
Like-named read-outs stand apart in the source and are kept apart here.

What was measured:
[1] = tested on: DU 145 prostate cancer cell line; assay: Cytotoxicity, SRB assay, DU 145; type: cell-based, human
Description: (§1) The SRB Assay was used to determine cell number during cytotoxocity experiments. The following protocol was used: • 1. […] Experimental cultures were cultured in 96-well microtiter plates (200 uL growth medium per well; 1,000-200,000 cells per well). • 3. Cultures were fixed with 50 uL 50% TCA (4° C.). (see cell fixation protocol for details). • 4. Fixed cells were stained with 50 uL 0.4% (wt/vol) SRB in 1% acetic acid for 10 minutes. • 5. SRB was removed and the cultures were quickly* rinsed 5 times with 1% acetic acid to remove unbound dye.** • 6. Cultures were air-dried overnight until there is no visible moisture. • 7. […] Absorbance was read at 540 nm. • * quickly performing rinsing process is to prevent desorption of protein-bound SRB • ** completely remove residual wash solution by sharply flicking plates over sink. Fixation of Cells Attached to the Plastic Substratum
(§2) The following protocol was used for fixing cells: • a. 50 uL of 50% TCA (4° C.) were gently layered on the top of growth medium in each well to make a final TCA concentration of 10%. • b. Cultures were incubated at 4° C. for 1 hour. • c. Cultures were washed 5 times with tap water to remove TCA, growth medium, low-molecular-weight metabolites, and serum protein. • d. Plates were air-dried until there was no visible moisture.

CV-1 control cell line = assay: Cytotoxicity, SRB assay, CV-1 control; type: cell-based, African green monkey
Description: (§3) The SRB Assay was used to determine cell number during cytotoxocity experiments. The following protocol was used: • 1. Cells were detached with 0.25% trypsin. • 2. Experimental cultures were cultured in 96-well microtiter plates (200 uL growth medium per well; 1,000-200,000 cells per well). • 3. Cultures were fixed with 50 uL 50% TCA (4° C.). (see cell fixation protocol for details). • 4. Fixed cells were stained with 50 uL 0.4% (wt/vol) SRB in 1% acetic acid for 10 minutes. • 5. SRB was removed and the cultures were quickly* rinsed 5 times with 1% acetic acid to remove unbound dye.** • 6. Cultures were air-dried overnight until there is no visible moisture. • 7. The cellular protein-bound SRB was dissolved with 200 uL unbuffered Tris base (10 mM, pH 10.5) for 30 minutes on a rocking platform shaker. • 8. Absorbance was read at 540 nm. • * quickly performing rinsing process is to prevent desorption of protein-bound SRB • ** completely remove residual wash solution by sharply flicking plates over sink. Fixation of Cells Attached to the Plastic Substratum
as §2

[2] = tested on: TSU prostate cancer cell line; assay: Cytotoxicity, SRB assay, TSU; type: cell-based, human; conditions: read-out: IC50 TSU
Description: as §1, §2

[3] = tested on: TCCSUP bladder cancer cell line; assay: Cytotoxicity, SRB assay, TCCSUP; type: cell-based, human; conditions: read-out: IC50 TCCSUP
Description: as §1, §2

[4] = tested on: PPC-1 prostate cancer cell line; assay: Cytotoxicity, SRB assay, PPC-1; type: cell-based, human
Description: as §1, §2

[5] = tested on: AR-expressing LNCaP prostate cancer cell line; assay: Cytotoxicity, SRB assay, LNCaP; type: cell-based, human
Description: as §1, §2

[6] = tested on: PC-3 bone metastatic prostate cancer cell line; assay: Cytotoxicity, SRB assay, PC-3; type: cell-based, human
Description: PPC-1, LNCaP, TSU, PC-3, and DU145 were grown in PRMI-1640 medium containing 2 mM L-glutamine supplemented with 10% fetal bovine serum (FBS). Cells were maintained in a 5% CO2/95% air humidified atomosphere at 37° C.
as §3, §2

[7] = tested on: HT-29 colorectal adenocarcinoma cell line; assay: Cytotoxicity, SRB assay, HT-29; type: cell-based, human
Description: as §1, §2

DU 145 cells = assay: Induction of apoptosis, DU 145; type: cell-based, human
Description: (§4) The ability of DJ 1-31, DJ 1-29, S-NTBA and Compound V to induce apoptosis in different prostate cancer cell lines (DU 145, PC-3, TSU, PPC-1 and LNCaP), in other cancer cell lines (TCCSUP, HT-29 and MCF-7) and in a control cell line (CV-1) was determined and the results are shown in Table 6.

CV-1 cells = assay: Induction of apoptosis, CV-1; type: cell-based, African green monkey
Description: as §4

TCCSUP cells = assay: Induction of apoptosis, TCCSUP; type: cell-based, human
Description: as §4

PC-3 cells = assay: Induction of apoptosis, PC-3; type: cell-based, human
Description: as §4

[8] = tested on: MCF-7 breast adenocarcinoma cell line; assay: Cytotoxicity, SRB assay, MCF-7; type: cell-based; conditions: Homo sapiens, Example 4
Description: as §3, §2

LNCaP cells = assay: Induction of apoptosis, LNCaP; type: cell-based, human
Description: as §4

MCF-7 cells = assay: Induction of apoptosis, MCF-7; type: cell-based
Description: as §4

PPC-1 cells = assay: Induction of apoptosis, PPC-1; type: cell-based, human
Description: as §4

TSU cells = assay: Induction of apoptosis, TSU; type: cell-based, human
Description: as §4

HT-29 cells = assay: Induction of apoptosis, HT-29; type: cell-based, human
Description: as §4

[9] = Homo sapiens, DU-145, read-out: IC50 DU145
[10] = Homo sapiens, PPC-1, read-out: IC50 PPC-1
[11] = Homo sapiens, LNCaP, 24 h, read-out: IC50 LNCaP 24 hr treatment
[12] = Homo sapiens, LNCaP, 144 h, read-out: IC50 LNCaP 6 day treatment
[13] = Homo sapiens, LNCaP, read-out: IC50 LNCaP
[14] = Homo sapiens, read-out: IC50 PC-3
[15] = Homo sapiens, HT-29, read-out: IC50 HT-29

In the case of O=c1[nH]cc(F)c(=O)[nH]1 [Compound 5-FU, reference compound], the IC50 ([1]; Table 2A, Example 1, read-out: IC50 DU145) is reported as 4.5 ± 0.3 µM, the IC50 (CV-1 control cell line; Table 2B, Example 1, read-out: IC50 CV-1 (Control)) is reported as 5.4 ± 0.3 µM and the IC50 ([2]; Table 2A, Example 1) is reported as 2.7 ± 0.6 µM. The IC50 ([3]; Table 2B, Example 1) was 3.6 ± 0.7 µM, the IC50 ([4]; Table 2A, Example 1, read-out: IC50 PPC-1) was 5.1 ± 0.5 µM and the IC50 ([5]; Table 2A, Example 1, read-out: IC50 LNCaP) was 4.1 ± 0.6 µM. For the same molecule, the IC50 ([6]; 24 hr treatment, Example 3, read-out: IC50 PC-3 24 hr treatment) was 20 to 50 µM, the IC50 ([6]; 4 day treatment, Example 3, read-out: IC50 PC-3 4 day treatment) was 10.9 µM and the IC50 ([6]; Table 2A, Example 1, read-out: IC50 PC-3) was 10.5 ± 0.6 µM. It also gave an IC50 ([7]; Table 2B, Example 1, read-out: IC50 HT-29) of 5.4 ± 1.1 µM.

Molecule C[C@](O)(COc1ccc(N=C=S)cc1)C(=O)Nc1ccc([N+](=O)[O-])c(C(F)(F)F)c1 [Compound V] has an IC50 ([1]; Homo sapiens, DU-145, 24 h, read-out: IC50 DU 145) of 62.1 ± 0.6 µM, an IC50 ([1]; Homo sapiens, DU-145, 96 h, read-out: IC50 DU 145) of 69.7 ± 6.5 µM and an IC50 [1, 9] of 74.8 ± 1.2 µM. For the same molecule, the IC50 (CV-1 control cell line; Chlorocebus sabaeus, 24 h, read-out: IC50 CV-1) was > 100 µM, the IC50 (CV-1 control cell line; Chlorocebus sabaeus, 96 h, read-out: IC50 CV-1) was > 100 µM and the “Enrichment factor DU 145” value (DU 145 cells) was 5.071. For the same molecule, the “Enrichment factor CV-1” value (CV-1 cells) was 6.548, the IC50 ([2]; Homo sapiens, 24 h) was 54.1 ± 5.5 µM and the IC50 ([2]; Homo sapiens, 96 h) was 55 ± 0.8 µM. The IC50 ([2]; Homo sapiens) was 56.9 ± 2.9 µM, the “Enrichment factor TCCSUP” value (TCCSUP cells) was 1.176 and the “Enrichment factor PC-3” value (PC-3 cells) was 2.500. The IC50 ([8]; MCF7, 24 h, drug incubation time 1 day) was 32.7 ± 1.9 µM, the IC50 ([8]; MCF7, 96 h, drug incubation time 4 day) was 39.4 ± 5.4 µM and the “Enrichment factor LNCaP” value (LNCaP cells) was 2.000. For the same molecule, the IC50 ([3]; Homo sapiens, TCC-SUP, 24 h) was 90.4 ± 2.2 µM, the IC50 ([3]; Homo sapiens, TCC-SUP, 96 h) was 78.1 ± 11.2 µM and the IC50 ([3]; Homo sapiens, TCC-SUP) was > 100 µM. The “Enrichment factor MCF-7” value (MCF-7 cells) was 1.926, the IC50 ([4]; Homo sapiens, PPC-1, 24 h, read-out: IC50 PPC-1) was 63.7 ± 4.6 µM and the IC50 ([4]; Homo sapiens, PPC-1, 96 h, read-out: IC50 PPC-1) was 62.6 ± 4.9 µM. For the same molecule, the IC50 [4, 10] was 58.1 ± 5.9 µM, the “Enrichment factor PPC-1” value (PPC-1 cells) was 1.749 and the IC50 ([5]; Homo sapiens, LNCaP, 24 h, read-out: IC50 LNCaP) was 19.8 ± 10.5 µM. For the same molecule, the IC50 [5, 11] was 39.6 µM, the IC50 ([5]; Homo sapiens, LNCaP, 96 h, read-out: IC50 LNCaP) was 12.8 ± 4.1 µM and the IC50 [5, 12] was 33.6 µM. For the same molecule, the IC50 [5, 13] was 26 ± 8.3 µM, the “Selectivity for the AR-expressing LNCaP prostate cancer cell line” value ([5]; compared with prostate cancer cell lines not expressing AR, non-prostate cancer cell lines, control cell line) was “highly selective” and the IC50 ([6]; Homo sapiens, 24 h, read-out: IC50 PC-3) was 47.8 ± 4.2 µM. For the same molecule, the IC50 ([6]; Homo sapiens, 96 h, read-out: IC50 PC-3) was 48.5 ± 10.1 µM, the IC50 [6, 14] was 59 ± 6 µM and the “Enrichment factor TSU” value (TSU cells) was 1.167. The IC50 ([7]; Homo sapiens, HT-29, 24 h, read-out: IC50 HT-29) was 85.5 ± 4.5 µM, the IC50 ([7]; Homo sapiens, HT-29, 96 h, read-out: IC50 HT-29) was 71 ± 1.2 µM and the IC50 [7, 15] was 55 ± 1.7 µM. The “Enrichment factor HT-29” value (HT-29 cells) was 1.410.

With C[C@](O)(CSc1ccc(NC(=O)CBr)cc1)C(=O)Nc1ccc(C#N)c(C(F)(F)F)c1 [R-CTF-T-BA-1] the IC50 [1, 9] was 3.1 ± 0.1 µM, the IC50 (CV-1 control cell line; Chlorocebus sabaeus, 24 h, read-out: IC50 CV-1 24 hr treatment) was 23.4 ± 1.6 µM and the IC50 (CV-1 control cell line; Chlorocebus sabaeus, 96 h, read-out: IC50 CV-1 4 day treatment) was 13.9 µM. The IC50 (CV-1 control cell line; Chlorocebus sabaeus, read-out: IC50 CV-1 (Control)) was 10.8 ± 0.5 µM, the IC50 ([2]; Homo sapiens) was 0.6 ± 0.1 µM and the IC50 ([3]; Homo sapiens, TCC-SUP) was 3.8 ± 0.5 µM. For the same molecule, the IC50 [4, 10] was 1.3 ± 0.1 µM, the IC50 [5, 11] was 11.2 µM and the IC50 [5, 12] was 8.1 µM. It also gave an IC50 [5, 13] of 3.2 ± 0.4 µM, an IC50 ([6]; Homo sapiens, 24 h, read-out: IC50 PC-3 24 hr treatment) of 22.1 µM and an IC50 ([6]; Homo sapiens, 96 h, read-out: IC50 PC-3 4 day treatment) of 16.8 µM. It also gave an IC50 [6, 14] of 2.6 ± 0.1 µM and an IC50 [7, 15] of 1.6 ± 0.03 µM.
